Measurements as given in article PMC10088020, “AA16 Oxidoreductases Boost Cellulose-Active AA9 Lytic Polysaccharide Monooxygenases from Myceliophthora thermophila” (ACS Catalysis, 2023).

Key:
[1] = biological target: T1, AnAA16A (Aspergillus nidulans, UniProt Q5BFA2); experiment: H2O2 production, ferric-xylenol orange assay; assay type: biochemical; conditions: 1 mM Pyg as reductant, O2; pH 5.0, 30 °C
T1 construct: gene ANIA_00778; catalytic domain; C-terminal extension (residues 199-306) removed, native signal peptide used for secretion; C-terminal His-tag cut with TEV; Pichia pastoris X-33; N-terminal His not methylated; Cu(II)-saturated
T1 sequence (Q5BFA2 20-198): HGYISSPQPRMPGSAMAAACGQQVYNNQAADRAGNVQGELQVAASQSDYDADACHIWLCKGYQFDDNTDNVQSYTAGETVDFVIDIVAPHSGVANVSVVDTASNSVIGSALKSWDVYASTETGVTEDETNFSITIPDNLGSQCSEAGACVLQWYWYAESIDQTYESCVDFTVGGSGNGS

[2] = biological target: T2, MtAA16A (Thermothelomyces thermophilus, UniProt G2QH80); experiment: thermal shift (nDSF); conditions: may reflect reduction of the active-site copper rather than binding (authors)
T2 construct: gene MYCTH_2306267; mature secreted protein, homologously produced in M. thermophila C1; signal peptide removed; N-terminal His methylated; Cu(II)-saturated

[3] = biological target: T2, MtAA16A; experiment: H2O2-driven oxidation to coerulignone ([…],6-DMP assay); assay type: biochemical; conditions: co-substrate H2O2; Cu(II)-saturated enzyme

T2 sequence (G2QH80 entry or part of it): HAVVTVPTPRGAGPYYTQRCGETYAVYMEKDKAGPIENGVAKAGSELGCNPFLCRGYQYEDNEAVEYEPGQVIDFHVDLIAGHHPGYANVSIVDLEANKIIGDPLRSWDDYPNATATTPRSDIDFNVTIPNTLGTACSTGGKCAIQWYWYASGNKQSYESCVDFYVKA

Structure (SMILES) | H2O2 production, ferric-xylenol orange assay [1] | thermal stabilization [2] | H2O2-driven oxidation to coerulignone (2,6-DMP assay) [3]
Oc1cccc(O)c1O [pyrogallol] | we observed accumulation of H2O2 in MtAA16A-Pyg and AnAA16A-Pyg samples | – | –
COc1cccc(OC)c1O [syringol, 2,6-dimethoxyphenol] | – | syringol induced significant thermal stabilization (Figure S8), which is consistent with binding | MtAA16A is a copper-dependent enzyme able to oxidize syringol in the presence of H2O2
